#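 Test compounds were applied to cells in 96-well plates for 48 hours at 5 doses. TGI is the concentration that stops growth completely.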
# What was measured:
# Assay in all cases: growth of human tumour cells (NCI), 48 h
# SR leukemia = test system: SR leukemia
# HOP-62 NSCLC = test system: HOP-62 NSCLC
# SNB-19 CNS = test system: SNB-19 CNS
# SF-539 CNS = test system: SF-539 CNS
# UACC-257 melanoma = test system: UACC-257 melanoma
# A549 NSCLC = test system: A549 NSCLC
# M14 melanoma = test system: M14 melanoma
# MALME-3M melanoma = test system: MALME-3M melanoma
# PC-3 prostate = test system: PC-3 prostate
# 786-0 renal = test system: 786-0 renal
# UO-31 renal = test system: UO-31 renal
# SF-268 CNS = test system: SF-268 CNS
# NCI-H522 lung = test system: NCI-H522 lung
# HS 578T breast = test system: HS 578T breast
# MDA-N = test system: MDA-N
# SF-295 CNS = test system: SF-295 CNS
# RXF 393 renal = test system: RXF 393 renal
# OVCAR-3 ovarian = test system: OVCAR-3 ovarian
# NCI-H460 lung = test system: NCI-H460 lung
# CCRF-CEM leukemia = test system: CCRF-CEM leukemia
# SK-MEL-5 melanoma = test system: SK-MEL-5 melanoma
# KM12 colon = test system: KM12 colon
# SK-MEL-28 melanoma = test system: SK-MEL-28 melanoma
# SK-OV-3 ovarian = test system: SK-OV-3 ovarian
# SK-MEL-2 melanoma = test system: SK-MEL-2 melanoma
# TK-10 renal = test system: TK-10 renal
# RPMI-8226 leukemia = test system: RPMI-8226 leukemia
# OVCAR-4 ovarian = test system: OVCAR-4 ovarian
# SNB-75 CNS = test system: SNB-75 CNS
# U251 CNS = test system: U251 CNS
# DU-145 prostate = test system: DU-145 prostate
# NCI-H226 lung = test system: NCI-H226 lung
# IGROV1 ovarian = test system: IGROV1 ovarian
# EKVX NSCLC = test system: EKVX NSCLC
# A498 renal = test system: A498 renal
# CAKI-1 renal = test system: CAKI-1 renal
# HL-60(TB) leukemia = test system: HL-60(TB) leukemia
# HCC-2998 colon = test system: HCC-2998 colon
# HCT-15 colon = test system: HCT-15 colon
# MDA-MB-435 = test system: MDA-MB-435
# HOP-92 NSCLC = test system: HOP-92 NSCLC
# ACHN renal = test system: ACHN renal
# OVCAR-5 ovarian = test system: OVCAR-5 ovarian
# OVCAR-8 ovarian = test system: OVCAR-8 ovarian
# BT-549 breast = test system: BT-549 breast
# MCF7 breast = test system: MCF7 breast
# NCI/ADR-RES ovarian = test system: NCI/ADR-RES ovarian
# SN12C renal = test system: SN12C renal
# MDA-MB-231 breast = test system: MDA-MB-231 breast
# HCT-116 colon = test system: HCT-116 colon
# NCI-H23 lung = test system: NCI-H23 lung
# SW-620 colon = test system: SW-620 colon
# UACC-62 melanoma = test system: UACC-62 melanoma
# LOX IMVI melanoma = test system: LOX IMVI melanoma
# T-47D breast = test system: T-47D breast
# COLO 205 colon = test system: COLO 205 colon
# MOLT-4 leukemia = test system: MOLT-4 leukemia
# HT29 colon = test system: HT29 colon
smiles,measurement,setting,value
C[As](C)SCC(NC(=O)CCC(N)C(=O)O)C(=O)NCC(=O)O.Cl.c1ccncc1 (stereo not drawn),TGI,SR leukemia,0.076 µM
same,TGI,HOP-62 NSCLC,5.64 µM
same,TGI,SNB-19 CNS,25.5 µM
same,TGI,SF-539 CNS,2.09 µM
same,TGI,UACC-257 melanoma,2.46 µM
same,TGI,A549 NSCLC,5.64 µM
same,TGI,M14 melanoma,1.12 µM
same,TGI,MALME-3M melanoma,0.119 µM
same,TGI,PC-3 prostate,4 µM
same,TGI,786-0 renal,1.3 µM
same,TGI,UO-31 renal,1.31 µM
same,TGI,SF-268 CNS,3.59 µM
same,TGI,NCI-H522 lung,0.267 µM
same,TGI,HS 578T breast,4.6 µM
same,TGI,MDA-N,1.51 µM
same,TGI,SF-295 CNS,12.7 µM
same,TGI,RXF 393 renal,0.398 µM
same,TGI,OVCAR-3 ovarian,0.412 µM
same,TGI,NCI-H460 lung,8.9 µM
same,TGI,CCRF-CEM leukemia,6.31 µM
same,TGI,SK-MEL-5 melanoma,0.878 µM
same,TGI,KM12 colon,3.81 µM
same,TGI,SK-MEL-28 melanoma,2.01 µM
same,TGI,SK-OV-3 ovarian,> 47.8 µM
same,TGI,SK-MEL-2 melanoma,1.67 µM
same,TGI,TK-10 renal,0.595 µM
same,TGI,RPMI-8226 leukemia,1.56 µM
same,TGI,OVCAR-4 ovarian,2.64 µM
same,TGI,SNB-75 CNS,14.8 µM
same,TGI,U251 CNS,5.58 µM
same,TGI,DU-145 prostate,0.556 µM
same,TGI,NCI-H226 lung,1.19 µM
same,TGI,IGROV1 ovarian,6.18 µM
same,TGI,EKVX NSCLC,3.08 µM
same,TGI,A498 renal,3.44 µM
same,TGI,CAKI-1 renal,0.652 µM
same,TGI,HL-60(TB) leukemia,0.878 µM
same,TGI,HCC-2998 colon,0.813 µM
same,TGI,HCT-15 colon,0.977 µM
same,TGI,MDA-MB-435,1.07 µM
same,TGI,HOP-92 NSCLC,0.763 µM
same,TGI,ACHN renal,1.1 µM
same,TGI,OVCAR-5 ovarian,6.89 µM
same,TGI,OVCAR-8 ovarian,0.679 µM
same,TGI,BT-549 breast,1.57 µM
same,TGI,MCF7 breast,1.14 µM
same,TGI,NCI/ADR-RES ovarian,9.71 µM
same,TGI,SN12C renal,2.14 µM
same,TGI,MDA-MB-231 breast,0.912 µM
same,TGI,HCT-116 colon,1.53 µM
same,TGI,NCI-H23 lung,2.7 µM
same,TGI,SW-620 colon,6.59 µM
same,TGI,UACC-62 melanoma,1.13 µM
same,TGI,LOX IMVI melanoma,1.02 µM
same,TGI,T-47D breast,1.19 µM
same,TGI,COLO 205 colon,> 100 µM
NC(Cn1ccc(=O)c(O)c1)C(=O)O (stereo not drawn),TGI,SR leukemia,> 100 µM
same,TGI,MOLT-4 leukemia,> 100 µM
same,TGI,HOP-62 NSCLC,> 100 µM
same,TGI,SNB-19 CNS,> 100 µM
same,TGI,SF-539 CNS,> 100 µM
same,TGI,UACC-257 melanoma,> 100 µM
same,TGI,A549 NSCLC,> 100 µM
same,TGI,M14 melanoma,> 100 µM
same,TGI,MALME-3M melanoma,> 100 µM
same,TGI,PC-3 prostate,> 100 µM
same,TGI,786-0 renal,> 100 µM
same,TGI,UO-31 renal,> 100 µM
same,TGI,SF-268 CNS,> 100 µM
same,TGI,NCI-H522 lung,> 100 µM
same,TGI,HS 578T breast,> 100 µM
same,TGI,MDA-N,> 100 µM
same,TGI,SF-295 CNS,> 100 µM
same,TGI,RXF 393 renal,> 100 µM
same,TGI,OVCAR-3 ovarian,> 100 µM
same,TGI,NCI-H460 lung,> 100 µM
same,TGI,CCRF-CEM leukemia,> 100 µM
same,TGI,SK-MEL-5 melanoma,> 100 µM
same,TGI,KM12 colon,> 100 µM
same,TGI,SK-MEL-28 melanoma,> 100 µM
same,TGI,SK-OV-3 ovarian,> 100 µM
same,TGI,SK-MEL-2 melanoma,> 100 µM
same,TGI,TK-10 renal,> 100 µM
same,TGI,RPMI-8226 leukemia,> 100 µM
same,TGI,OVCAR-4 ovarian,> 100 µM
same,TGI,U251 CNS,> 100 µM
same,TGI,DU-145 prostate,> 100 µM
same,TGI,NCI-H226 lung,> 100 µM
same,TGI,IGROV1 ovarian,> 100 µM
same,TGI,EKVX NSCLC,> 100 µM
same,TGI,A498 renal,> 100 µM
same,TGI,CAKI-1 renal,> 100 µM
same,TGI,HL-60(TB) leukemia,> 100 µM
same,TGI,HCC-2998 colon,> 100 µM
same,TGI,HCT-15 colon,> 100 µM
same,TGI,MDA-MB-435,> 100 µM
same,TGI,HOP-92 NSCLC,> 100 µM
same,TGI,HT29 colon,> 100 µM
same,TGI,ACHN renal,> 100 µM
same,TGI,OVCAR-5 ovarian,> 100 µM
same,TGI,OVCAR-8 ovarian,> 100 µM
same,TGI,BT-549 breast,> 100 µM
same,TGI,MCF7 breast,> 100 µM
same,TGI,NCI/ADR-RES ovarian,> 100 µM
same,TGI,SN12C renal,> 100 µM
same,TGI,MDA-MB-231 breast,> 100 µM
same,TGI,HCT-116 colon,> 100 µM
same,TGI,NCI-H23 lung,> 100 µM
same,TGI,SW-620 colon,> 100 µM
same,TGI,UACC-62 melanoma,> 100 µM
same,TGI,LOX IMVI melanoma,> 100 µM
same,TGI,T-47D breast,> 100 µM
same,TGI,COLO 205 colon,> 100 µM
